Data from US7534778B2, “(20S)-1α-hydroxy-2-methylene-19-nor-bishomopregnacalciferol and its uses” (Wisconsin Alumni Research Foundation, priority 2001, dated 2009).
pEC50, pKi: −log10 of the molar value. Entries after “also recorded” stand apart in the source; their conditions may differ. Where two headings read alike, the source gives them in different places.

Legend:
HL-60 cells = experiment: HL-60 cell differentiation into monocytes; assay type: cell-based; details: FIG. 3; for pEC50: HL-60 cells, read-out: EC50, HL60 differentiation
Description: The differentiation of HL-60 promyelocytic into monocytes was determined as described by Ostrem et al (J. Biol. Chem. 262, 14164-14171, 1987).
VDR binding and HL60 cell differentiation.

[1] = serum calcium response in vitamin D-sufficient normal female rats; assay type: in vivo, rat; details: for serum calcium (hypercalcemia): normal female rats, 5000 pmol/day for 7 days, oral or intraperitoneal, 4 hours after last dose
Description: Serum calcium response in vitamin D-sufficient animals on a normal calcium diet. […] The doses were administered to two separate groups of animals by either the oral or intraperitoneal route, and serum calcium levels were assessed 4 hours after the last dose.

[2] = test system: intestinal calcium transport; experiment: intestinal calcium transport, everted gut sac method, vitamin D-deficient rats; assay type: in vivo, rat; details: for intestinal calcium transport: everted gut sac, vitamin D-deficient rats
Description: (§1) Calcium mobilization from bone and intestinal calcium absorption in vitamin D-deficient animals. Using vitamin D-deficient rats on a low calcium diet (0.02%), the activities of these compounds in intestine and bone were tested.
Intestinal calcium transport was evaluated in the same groups of animals using the everted gut sac method (FIG. 5).

[3] = test system: calcium mobilization from bone; experiment: bone calcium mobilization in vitamin D-deficient rats on low calcium diet; assay type: in vivo, rat; details: for bone calcium mobilization activity (serum calcium levels): low calcium diet (0.02%), overall / all dosages, FIG. 4
Description: as §1

[4] = target: T1, full-length recombinant rat vitamin D receptor (Rattus norvegicus, UniProt P13053); experiment: competition with [3H]-1,25(OH)2D3 for binding to vitamin D receptor; details: FIG. 2, read-out: Ki, competition with [3H]-1,25(OH)2D3 for VDR binding
T1 sequence (P13053 1-423): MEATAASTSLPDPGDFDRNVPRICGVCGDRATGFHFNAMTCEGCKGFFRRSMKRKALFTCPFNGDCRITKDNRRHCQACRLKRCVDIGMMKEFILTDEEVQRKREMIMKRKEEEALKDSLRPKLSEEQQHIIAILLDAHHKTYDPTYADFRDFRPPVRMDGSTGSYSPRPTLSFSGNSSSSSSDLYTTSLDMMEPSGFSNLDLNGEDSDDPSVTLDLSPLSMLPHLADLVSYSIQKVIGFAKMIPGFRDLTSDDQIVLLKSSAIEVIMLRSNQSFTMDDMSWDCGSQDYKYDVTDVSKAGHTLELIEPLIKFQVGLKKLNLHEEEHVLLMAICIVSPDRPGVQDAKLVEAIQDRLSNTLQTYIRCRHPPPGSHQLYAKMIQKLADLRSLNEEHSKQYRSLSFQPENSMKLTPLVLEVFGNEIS

[5] = test system: porcine intestinal vitamin D receptor; experiment: binding to porcine intestinal vitamin D receptor; details: FIG. 2

Row | SMILES | pEC50 (HL-60 cells) | serum calcium (hypercalcemia) [1] | intestinal calcium transport activity ([2]; overall, dose not stated) | mobilization of bone calcium ([3]; 260 pmol/day for 7 days) | pKi [4] | intestinal calcium transport ([2]; 260 pmol/day) | bone calcium mobilization activity (serum calcium levels) [3] | intestinal calcium transport ([2]; 260 or 1300 pmol/day) | intestinal calcium transport activity ([2]; doses higher than 1300 pmol/day) | mobilization of bone calcium ([3]; 1300 pmol/day (5-fold)) | binding to porcine receptor compared to standard 1,25-(OH)2D3 [5] | potency on HL-60 differentiation relative to 1,25(OH)2D3 (HL-60 cells) | pEC50 (HL-60 cells; Homo sapiens) | calcemic activity from serum calcium ([1]; rats, chronic doses, FIG. 6)
1 | C[C@H](CCCC(C)(C)O)[C@H]1CC[C@H]2/C(=C/C=C3C[C@@H](O)C[C@H](O)C3)CCC[C@]12C [1,25(OH)2 19-nor-D3, 1α,25-dihydroxy-19-nor-vitamin D3, reference compound] | 8.40 | produced frank hypercalcemia | devoid of intestinal calcium transport activity | did not result in mobilization of bone calcium | 9.70 | – | – | – | – | – | – | – | – | –
2 | C=C1/C(=C\C=C2/CCC[C@]3(C)[C@@H]([C@H](C)CCCC(C)(C)O)CC[C@@H]23)C[C@@H](O)C[C@@H]1O [1,25(OH)2D3, 1α,25-dihydroxyvitamin D3, reference compound] | 8.30 | – | – | – | – | promotes a significant increase | increased serum calcium levels at all dosages | – | – | – | – | – | – | –
3 | C=C1C(O)CC(=CC=C2CCCC3(C)C2CCC3C(C)C)CC1O (stereo not drawn) [2-MP, 1α-hydroxy-2-methylene-19-nor-homopregnacalciferol] | 8.22 | – | – | did not result in mobilization of bone calcium | 9.52 | – | little, if any, activity in mobilizing calcium from bone | calcium transport activity equivalent to 1,25(OH)2D3 | decreased this activity | without effect | – | – | – | –
4 | C=C1[C@H](O)CC(=C/C=C2\CCC[C@]3(C)[C@@H]([C@@H](C)CC)CC[C@@H]23)C[C@H]1O [2-MbisP, (20S)-1α-hydroxy-2-methylene-19-nor-bishomopregnacalciferol] | – | no increase in serum calcium | very little activity | did not result in mobilization of bone calcium | 9.22 | – | very little bone calcium mobilization activity; also recorded: little, if any, activity in mobilizing calcium from bone | do not promote intestinal calcium transport | – | without effect | bound equally well | almost as potent as 1,25(OH)2D3 | 8.15 | very little calcemic activity
5 | C=C1[C@H](O)CC(=C/C=C2\CCC[C@]3(C)[C@@H](CC)CC[C@@H]23)C[C@H]1O [2-Mpregna, 1α-hydroxy-2-methylene-19-nor-pregnacalciferol] | 7.77 | – | – | did not result in mobilization of bone calcium | 9.52 | – | little, if any, activity in mobilizing calcium from bone | do not promote intestinal calcium transport | – | without effect | – | – | – | –
